Here are results for 57 compounds from US10301306B2, “Substituted dihydro-1H-pyrrolo[3,2-c]pyridin-4(5H)-ones as RIPK3 inhibitors” (BRISTOL-MYERS SQUIBB COMPANY, priority 2014, dated 2019).

pIC50: −log10 of the molar value.

One experiment deals with RIPK3 (Homo sapiens (Human), UniProt Q9Y572). Description: RIPK3 HTRF Kinase Assay. To be noted: RIPK3 1 nM; HTRF probe 23 nM; 60 min at room temperature; read-out: IC50 for Inhibition of RIPK3. It is filed as binding. (In general: TR-FRET usually uses a lanthanide donor and a delayed reading to cut background.)
Chain of RIPK3 (Q9Y572 whole entry, species assumed): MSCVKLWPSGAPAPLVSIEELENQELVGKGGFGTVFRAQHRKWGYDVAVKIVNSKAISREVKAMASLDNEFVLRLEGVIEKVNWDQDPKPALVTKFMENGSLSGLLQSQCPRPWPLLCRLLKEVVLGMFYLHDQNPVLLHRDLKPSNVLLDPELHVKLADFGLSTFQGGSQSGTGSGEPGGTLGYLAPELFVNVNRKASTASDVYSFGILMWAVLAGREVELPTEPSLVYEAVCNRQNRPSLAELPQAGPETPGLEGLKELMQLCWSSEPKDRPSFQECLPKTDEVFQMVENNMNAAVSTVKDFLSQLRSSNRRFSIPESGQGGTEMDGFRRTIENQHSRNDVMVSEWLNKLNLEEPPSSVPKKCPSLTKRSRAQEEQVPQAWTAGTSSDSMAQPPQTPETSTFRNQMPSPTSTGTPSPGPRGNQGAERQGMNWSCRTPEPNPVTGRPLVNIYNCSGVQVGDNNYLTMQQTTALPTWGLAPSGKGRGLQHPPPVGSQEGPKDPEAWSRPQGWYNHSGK
With `COc1ccc(-c2c3c(n(Cc4ccc(F)cc4C#N)c2-c2ccncc2)CCNC3=O)cn1` [Example 124], the pIC50 is greater than 7.52.
`N#Cc1cc(F)ccc1Cn1c2c(c(-c3ccc(F)c(F)c3)c1-c1ccncc1)C(=O)NCC2` [Example 115]: the negative logarithm of the IC50 (pIC50) was greater than 7.52.
Same read-out and setting: the figure for `Cc1cc(-c2c(-c3ccc(F)cc3)c3c(n2Cc2ccc(F)cc2C#N)CCNC3=O)ccn1` [Example 20] is 7.00 to 7.51; for `O=C1NCCc2c1c(-c1ccc(F)cc1)c(-c1ccncc1)n2Cc1ccccn1` [Example 76] it is 4.82 to 7.00.
Consider `CCOC(=O)Nc1cc(-c2c(-c3ccc(F)cc3)c3c(n2CC2CCOCC2)CCNC3=O)ccn1` [Example 95], for which the pIC50 was 7.00 to 7.51.
With `CS(=O)(=O)c1cccc(-c2c3c(n(Cc4ccc(F)cc4C#N)c2-c2ccncc2)CCNC3=O)c1` [Example 126], the pIC50 is 4.82 to 7.00.
Take `N#CCCCn1c2c(c(-c3ccc(F)cc3)c1-c1ccncc1)C(=O)NCC2` [Example 59]: the negative logarithm of the IC50 (pIC50) is 4.82 to 7.00.
`N#Cc1cc(F)ccc1Cn1c2c(c(-c3cccs3)c1-c1ccncc1)C(=O)NCC2` [Example 14, 5-Fluoro-2-((4-oxo-2-(pyridin-4-yl)-3-(thiophen-2-yl)-4,5,6,7-tetrahydro-1H-pyrrolo[3,2-c]pyridin-1-yl)methyl)benzonitrile]: the pIC50 is greater than 7.52.
As for `CC(=O)Nc1cc(-c2c(-c3ccc(F)cc3)c3c(n2Cc2ccc(F)c(C#N)c2)CCNC3=O)ccn1` [Example 99], the pIC50 is 7.00 to 7.51.
In the case of `Cc1nc(-c2ccc(Cn3c4c(c(-c5ccc(F)cc5)c3-c3ccncc3)C(=O)NCC4)c(F)c2)no1` [Example 48], the pIC50 was greater than 7.52.
As to `O=C1NCCc2c1c(-c1ccc(F)cc1)c(-c1ccncc1)n2Cc1ccc(F)cc1F` [Example 64], the negative logarithm of the IC50 (pIC50) was greater than 7.52.
With `Cn1ccnc1Cn1c2c(c(-c3ccc(F)cc3)c1-c1ccncc1)C(=O)NCC2` [Example 80], the pIC50 is 4.82 to 7.00.
`O=C1NCCc2c1c(-c1ccc(F)cc1)c(-c1ccncc1)n2CC(=O)N1CCCC1` [Example 70]: the pIC50 was 7.00 to 7.51.
Still for that read-out and setting: the value for `N#Cc1cc(F)ccc1Cn1c2c(c(-c3cccc(S(N)(=O)=O)c3)c1-c1ccncc1)C(=O)NCC2` [Example 133] was 4.82 to 7.00.
On the same count and under the same terms, the value for `O=C1NCCc2c1c(-c1cccc3ccncc13)c(-c1ccncc1)n2CC1CCOCC1` [Example 112] was 4.82 to 7.00.
Same read-out and setting: the figure for `N#Cc1ccccc1Cn1c2c(c(-c3ccc(F)cc3)c1-c1ccncc1)C(=O)NCC2` [Example 68] is greater than 7.52; for `O=C1NCCc2c1c(-c1ccc(F)cc1)c(-c1ccncc1)n2Cc1ccc(F)cc1C(F)(F)F` [Example 55] it is greater than 7.52.
On to `Cn1cc(-c2c(-c3ccc(F)cc3)c3c(n2Cc2ccc(F)cc2C#N)CCNC3=O)cn1` [Example 24], for which the pIC50 is 4.82 to 7.00.
For the compound `N#Cc1cc(F)ccc1Cn1c2c(c(-c3ccc(Cl)s3)c1-c1ccncc1)C(=O)NCC2` [Example 130], the pIC50 was greater than 7.52.
`CC(C)(C)OC(=O)Nc1cccc(-c2c3c(n(Cc4ccc(Cl)cc4F)c2-c2ccncc2)CCNC3=O)c1` [Example 163]: the pIC50 was 7.00 to 7.51.
The same measure, in the same setting: the figure for `N#Cc1cc(F)ccc1Cn1c2c(c(-c3ccc(F)cc3)c1-c1ccc3[nH]ccc3c1)C(=O)NCC2` [Example 19] is 4.82 to 7.00; for `N#Cc1cccc(-c2c3c(n(Cc4ccc(F)cc4C#N)c2-c2ccncc2)CCNC3=O)c1` [Example 139] it is 7.00 to 7.51; for `CC(=O)Nc1cc(-c2c(-c3ccc(F)cc3)c3c(n2Cc2ccc(C(F)(F)F)cc2)CCNC3=O)ccn1` [Example 102] it is 4.82 to 7.00.
On the same count and under the same terms, the value for `Cc1cc(Cn2c3c(c(-c4ccc(F)cc4)c2-c2cn[nH]c2)C(=O)NCC3)n(C)n1` [Example 184] was 4.82 to 7.00; that for `CNc1cc(-c2c(-c3ccc(F)cc3)c3c(n2Cc2ccc(C(F)(F)F)cc2F)CCNC3=O)ccn1` [Example 10] was 4.82 to 7.00.
With `CC(C)OC(=O)Nc1cc(-c2c(-c3ccc(F)cc3)c3c(n2CC2CCOCC2)CCNC3=O)ccn1` [Example 91], the pIC50 is 4.82 to 7.00.
Take `CC(C)CC(=O)Nc1cc(-c2c(-c3ccc(F)cc3)c3c(n2CC2CCOCC2)CCNC3=O)ccn1` [Example 93]: the pIC50 was 4.82 to 7.00.
Same read-out and setting: the figure for `Cc1cscc1-c1c2c(n(Cc3ccc(F)cc3C#N)c1-c1ccncc1)CCNC2=O` [Example 143] is 4.82 to 7.00.
Same read-out and setting: the figure for `N#Cc1cc(F)ccc1Cn1c2c(c(-c3cccc(OC(F)(F)F)c3)c1-c1ccncc1)C(=O)NCC2` [Example 114] is 7.00 to 7.51; for `N#Cc1cc(F)ccc1Cn1c2c(c(-c3ccc(F)cc3)c1-c1ccncc1)C(=O)NCC2` [Example 34] it is greater than 7.52; for `O=C1NCCc2c1c(-c1ccc(F)cc1)c(-c1ccncc1)n2Cc1cc(F)cc(C(F)(F)F)c1` [Example 41] it is greater than 7.52.
The same measure, in the same setting: the figure for `CCC(=O)Nc1cc(-c2c(-c3ccc(F)cc3)c3c(n2Cc2ccc(C(F)(F)F)cc2F)CCNC3=O)ccn1` [Example 149] is 7.00 to 7.51.
On to `N#Cc1cc(F)ccc1Cn1c2c(c(-c3cccc(C(F)(F)F)c3)c1-c1ccncc1)C(=O)NCC2` [Example 123], for which the negative logarithm of the IC50 (pIC50) is greater than 7.52.
Still for that read-out and setting: the value for `COc1ccc(CCn2c3c(c(-c4ccc(F)cc4)c2-c2ccncc2)C(=O)NCC3)cc1` [Example 37] was 4.82 to 7.00; that for `Nc1cccc(-c2c3c(n(Cc4ccc(Cl)cc4F)c2-c2ccncc2)CCNC3=O)c1` [Example 169] was 4.82 to 7.00.
With `O=C1NCCc2c1c(-c1ccncc1F)c(-c1ccncc1)n2Cc1ccc(Cl)cc1F` [Example 166], the pIC50 is 4.82 to 7.00.
For the compound `O=C1NCCc2c1c(-c1ccc(F)cc1)c(-c1ccncc1)n2Cc1c(F)cccc1C(F)(F)F` [Example 73], the pIC50 was greater than 7.52.
The same measure, in the same setting: the value for `CC(=O)Nc1cccc(-c2c3c(n(CC4CCOCC4)c2-c2ccncc2)CCNC3=O)c1` [Example 106] was 4.82 to 7.00.
On the same count and under the same terms, the value for `N#Cc1ccc(Cn2c3c(c(-c4ccc(F)cc4)c2-c2ccncc2)C(=O)NCC3)nc1` [Example 54] was 7.00 to 7.51.
On the same count and under the same terms, the figure for `CC(C)(C)CCn1c2c(c(-c3ccc(F)cc3)c1-c1ccncc1)C(=O)NCC2` [Example 75] is greater than 7.52.
`Cc1cc(Cn2c3c(c(-c4cccc(CCc5ccccc5)c4)c2-c2ccncc2)C(=O)NCC3)n(C)n1` [Example 180]: the negative logarithm of the IC50 (pIC50) is 4.82 to 7.00.
On the same count and under the same terms, the value for `O=C1NCCc2c1c(-c1ccc(F)cc1)c(-c1ccncc1)n2CC1CCOCC1` [Example 31] was 4.82 to 7.00; that for `O=C1NCCc2c1c(-c1ccc(F)cc1)c(-c1ccncc1)n2Cc1ccc(C(F)(F)F)cc1` [Example 33] was 7.00 to 7.51; that for `Cc1ccc(S(=O)(=O)n2c3c(c(-c4ccc(F)cc4)c2-c2ccncc2)C(=O)NCC3)cc1` [Example 162, 3-(4-Fluorophenyl)-2-(pyridin-4-yl)-1-tosyl-6,7-dihydro-1H-pyrrolo[3,2-c]pyridin-4(5H)-one] was 4.82 to 7.00.
Same read-out and setting: the figure for `O=C1NCCc2c1c(-c1ccc(F)cc1)c(-c1ccnc(NC(=O)C3CC3)c1)n2CC1CCOCC1` [Example 87] is 7.00 to 7.51.
On the same count and under the same terms, the value for `O=c1[nH]ccc2c1c(-c1ccc(F)cc1)c(-c1ccncc1)n2Cc1ccc(C(F)(F)F)cc1F` [Example 157, 1-(2-Fluoro-4-(trifluoromethyl)benzyl)-3-(4-fluorophenyl)-2-(pyridin-4-yl)-1H-pyrrolo[3,2-c]pyridin-4(5H)-one] was greater than 7.52; that for `Cc1cc(Cn2c3c(c(-c4ccc(F)cc4)c2-c2ccncc2F)C(=O)NCC3)n(C)n1` [Example 182] was 7.00 to 7.51.
As for `COc1ccc(-c2c3c(n(Cc4ccc(F)cc4C#N)c2-c2ccncc2)CCNC3=O)cc1` [Example 121], the negative-log IC50 (pIC50) is 7.00 to 7.51.
On the same count and under the same terms, the value for `COCCNc1cc(-c2c(-c3ccc(F)cc3)c3c(n2Cc2ccc(C(F)(F)F)cc2F)CCNC3=O)ccn1` [Example 147] was 4.82 to 7.00; that for `N#CCn1c2c(c(-c3ccc(F)cc3)c1-c1ccncc1)C(=O)NCC2` [Example 49] was 4.82 to 7.00.
On the same count and under the same terms, the figure for `N#Cc1cc(F)ccc1Cn1c2c(c(-c3ccc(Cl)c(Cl)c3)c1-c1ccncc1)C(=O)NCC2` [Example 136] is greater than 7.52; for `CC(=O)Nc1cc(-c2c(-c3ccc(F)cc3)c3c(n2Cc2ccc(F)cc2C#N)CCNC3=O)ccn1` [Example 100] it is greater than 7.52.
On to `CCC(C)n1c2c(c(-c3ccc(F)cc3)c1-c1ccncc1)C(=O)NCC2` (stereo not drawn) [Example 63], for which the negative-log IC50 (pIC50) was 4.82 to 7.00.
The same measure, in the same setting: the figure for `O=C(Nc1cc(-c2c(-c3ccc(F)cc3)c3c(n2CC2CCOCC2)CCNC3=O)ccn1)c1ccncc1` [Example 85] is 4.82 to 7.00.
With `COc1ccc(Cn2c3c(c(-c4ccc(F)cc4)c2-c2ccncc2)C(=O)NCC3)cc1` [Example 38], the pIC50 was greater than 7.52.
`CC1(C)CNC(=O)c2c(-c3ccc(F)cc3)c(-c3ccncc3)n(CC3CCOCC3)c21` [Example 152, 3-(4-Fluorophenyl)-7,7-dimethyl-2-(pyridin-4-yl)-1-((tetrahydro-2H-pyran-4-yl)methyl)-6,7-dihydro-1H-pyrrolo[3,2-c]pyridin-4(5H)-one]: the pIC50 is 4.82 to 7.00.

The experiment is the same for the next values; noted with them: read-out: IC50 for Inhibition of RIPK3.
Turning to `Cc1ccc(Cn2c3c(c(-c4ccc(F)cc4)c2-c2ccncc2)C(=O)NCC3)cc1` [Example 45], the negative logarithm of the IC50 (pIC50) is 7.00 to 7.51.

Usually pIC50 stands for the IC50 on a negative log10 scale, so that one unit is a factor of ten.
